{"source": "patent US5756345A", "about": "“Production of tryptophan by the bacterium Escherichia coli” (Degussa Aktiengesellschaft, priority 1995, dated 1998)", "key": {"[1]": {"target": "anthranilate synthase encoded by trpE382 (Escherichia coli, UniProt P00895)", "test": "Feedback inhibition of anthranilate synthase by tryptophan, trpE382 enzyme", "format": "biochemical"}, "[2]": {"system": "transport negative tryptophan auxotroph carrying trpS378 (JP6006)", "test": "Growth response to tryptophan, trpS378 auxotroph defective in active transport", "format": "cell-based, Escherichia coli", "source_text": "(§1) JP6006 is derived from JP4153 by introduction of ΔtrpLE1413 by P1 transduction using TN10 as a linked marker and isolation of a tetracycline-sensitive derivative, followed by introduction of sac^+ by P1 transduction, using a P1 lysate grown on sac^+ strain GA122 (Alaeddinoglu, N. G. and H. P. Charles. (1979). J. Gen. Microbiol. 110: 47-59). JP4153 is aroF363 aroG103(FBR) aroH371(FBR) trpE382(FBR) trpR363 tyrR366 trpS378 aroP579 mtr-24 tna-1. JP7847 is a trpS^+ derivative of JP6006, isolated by P1 transduction.\n(§2) Cells were grown in minimal medium supplemented with different levels of tryptophan at 30° C. Growth was measured by optical density with a Klett colorimeter and doubling times were calculated from the exponential phase of each growth curve."}, "[3]": {"target": "T1, anthranilate synthase encoded by trpE476 (Escherichia coli, UniProt P00895)", "T1 construct": "plasmid pMU3019 in trpE-deleted JP6768 (trpDCBA functional), also trpE476DCBA on pMU91", "test": "Feedback inhibition of anthranilate synthase by tryptophan, trpE476 enzyme", "format": "biochemical", "source_text": "Plasmid pMU3018 (FIG. 6) carries the tip promoter, the trpE gene and part of the trpD gene on a 2.9 kb SmaI HindIII fragment. pMU3018 is derived from pMU578, which is a single-copy Tp^R plasmid carrying a galK'-lac'ZA fusion, similar to the promoter cloning vector pMU575 (Andrews, A. E., B. Lawley, and A. J. Pittard. (1991). J. Bacteriol. 173: 5068-5078), but with a SmaI EcoRI BglII linker replacing the SmaI site, and the DraI fragments removed, deleting lacY and lacA. If pMU3018 DNA is digested with these two enzymes and the fragments electrophoresed in a low melting point agarose gel it is a simple matter to separate and purify the trpEtrpD' 2.9 kb fragment and the larger 13 kb vector fragment. This 2.9 kb fragment was mutagenised with 50 mM nitrous acid for 60 minutes following the method of Ray et al. (Ray, J. M., C. Yanofsky and R. Bauerle. (1988). J. Bacteriol. 170: 5500-5506), except that spermine (1 mM) was added to the mutagenesis mixture. After mutagenesis, the fragment was religated with the larger 13 kb fragment and the products of ligation were transformed into strain JP6768, an E. coli strain which is trpR^-, and in which the trpE gene has been deleted from the chromosome but trpDCB and A are fully functional (ΔtrpLE1413 (Miozzari, G. F. and C. Yanofsky. (1978). J. Bacteriol. 133: 1457-1466). Approximately 2,000 transformants were selected on Luria agar containing trimethoprim. These were screened for growth on minimal medium supplemented with the tryptophan analogue 5-fluorotryptophan at 15 mM. Clones which grew were potential feedback-resistant mutants altered in the enzyme anthranilate synthase. The anthranilate synthase activity of each of these clones was assayed in the presence of very high levels of tryptophan (13.5 g/l) using the assay described in Cho, K-O. and C. Yanofsky. (1988). J. Mol. Biol. 204: 41-50. […] The mutant allele present in this strain was called trpE483. […] FIG. 4 compares the feedback sensitivity of anthranilate synthase from a strain with the wild-type allele (JP6768/pMU3018) and strains with the trpE483 allele (JP6768/pMU3025) and with the trpE476 allele (JP6768/pMU3019).\nThe effect of temperature of incubation on both stability and productivity for an overproducing strain carrying the trpS378 allele and a plasmid carrying the trp operon encoding a feedback-resistant anthranilate synthase, is shown in FIG. 2. Low temperatures favour high stability and low productivity, whilst higher temperatures favour productivity at the expense of stability. […] The data in FIG. 2 is for JP6015/pMU91 and the primary selection is for Ser^+. JP6015 is derived from JP4153 (see Example 4) by introduction of sac^+ by transduction,and introduction of serA^- by cotransduction with a closely linked Tn10 transposon, and subsequent selection of a tetracycline sensitive derivative. pMU91 is a plasmid derived from pSC101 (Cohen, S. N. and A. C. Chang (1977). J. Bacteriol. 132: 734-737), carrying Tc^R, trpE476DCBA and serA^+ (see FIG. 9). The trpE476DCBA alelle was isolated using the specialized transducing phage .PHI.80pt190h (Herschfield, V. et al (1974). Proc. Natl. Acad. Sci. USA 71:3455-3459). A trpE^- strain carrying .PHI.80pt190h was plated on minimal medium containing 1 mM 5-methyltryptophan (5MT). A pool of cells was induced by ultraviolet light to produce a lysate which was used in a subsequent transduction, selecting Trp^+ 5MTR transductants. […]"}, "[4]": {"system": "anthranilate synthase (wild-type strains)", "details": "read-out: tryptophan concentration giving about 50% inhibition of anthranilate synthase activity; cited from earlier work"}, "[5]": {"system": "anthranilate synthase of feedback-resistant mutants", "details": "cited from earlier work"}, "[6]": {"system": "tryptophan auxotroph unable to actively transport tryptophan (JP7847)", "test": "Growth response to tryptophan, trpS+ auxotroph defective in active transport", "format": "cell-based, Escherichia coli", "details": "minimal medium", "source_text": "as §1, §2"}, "[7]": {"system": "tryptophan auxotrophs with wild-type trpS allele able to actively transport tryptophan", "test": "Growth response to tryptophan, auxotrophs with wild-type trpS and active transport", "format": "cell-based, Escherichia coli", "details": "minimal medium"}, "[8]": {"target": "anthranilate synthase encoded by trpE483 (Escherichia coli, UniProt P00895)", "test": "Feedback inhibition of anthranilate synthase by tryptophan, trpE483 enzyme", "format": "biochemical", "details": "tryptophan 13.5 g/l", "source_text": "Plasmid pMU3018 (FIG. 6) carries the tip promoter, the trpE gene and part of the trpD gene on a 2.9 kb SmaI HindIII fragment. pMU3018 is derived from pMU578, which is a single-copy Tp^R plasmid carrying a galK'-lac'ZA fusion, similar to the promoter cloning vector pMU575 (Andrews, A. E., B. Lawley, and A. J. Pittard. (1991). J. Bacteriol. 173: 5068-5078), but with a SmaI EcoRI BglII linker replacing the SmaI site, and the DraI fragments removed, deleting lacY and lacA. If pMU3018 DNA is digested with these two enzymes and the fragments electrophoresed in a low melting point agarose gel it is a simple matter to separate and purify the trpEtrpD' 2.9 kb fragment and the larger 13 kb vector fragment. This 2.9 kb fragment was mutagenised with 50 mM nitrous acid for 60 minutes following the method of Ray et al. (Ray, J. M., C. Yanofsky and R. Bauerle. (1988). J. Bacteriol. 170: 5500-5506), except that spermine (1 mM) was added to the mutagenesis mixture. […]"}}, "note": "Where two headings read alike, the source gives them in different places.", "data": [{"compound": "N[C@@H](Cc1c[nH]c2ccccc12)C(=O)O", "note": "[tryptophan, L-tryptophan]", "values": [{"measurement": "inhibition of activity", "setting": "[1]; 1 mM tryptophan", "value": "less than 10%"}, {"measurement": "inhibition of anthranilate synthase", "setting": "[1]; tryptophan 12 g/l (60 mM)", "value": "60-80%"}, {"measurement": "tryptophan required for good growth", "setting": "[2]; 30° C., FIG. 1", "value": "at least 5 mM"}, {"measurement": "tryptophan concentration before maximum growth rate is achieved", "setting": "[2]; minimal medium", "value": 5, "unit": "mM"}, {"measurement": "inhibition of activity", "setting": "[3]; 1 mM tryptophan", "value": "less than 10%"}, {"measurement": "anthranilate synthase activity, % of full activity", "setting": "[3]; 10 mM L-tryptophan", "value": 70, "unit": "%"}, {"measurement": "resistance to feedback inhibition", "setting": "[3]; tryptophan 1 g/l", "value": "good resistance"}, {"measurement": "inhibition of anthranilate synthase", "setting": "[3]; tryptophan 12 g/l (60 mM)", "value": "60-80%"}, {"measurement": "inhibition of activity", "setting": "[3]; tryptophan 13.5 g/l", "value": "more than 60%"}, {"measurement": "IC50", "setting": "[4]", "value": "~0.02", "unit": "mM"}, {"measurement": "IC50", "setting": "[5]; mutants conferring higher feedback-resistance (Aiba et al. 1982), read-out: 50% inhibition values", "value": "> 20", "unit": "mM"}, {"measurement": "IC50", "setting": "[5]; mutants typically chosen for tryptophan overproduction (Aiba et al., CA 1182409), read-out: tryptophan concentration at which the 50% inhibition figure occurred", "value": "~13", "unit": "mM"}, {"measurement": "tryptophan level required for optimal growth", "setting": "[6]", "value": "~ 10^-3 M"}, {"measurement": "tryptophan level at which the strain grows with a normal doubling time", "setting": "[6]; FIG. 1", "value": "≥ 1", "unit": "mM"}, {"measurement": "tryptophan level supporting growth at a fast rate", "setting": "[7]", "value": 50, "unit": "µM"}, {"measurement": "inhibition of activity", "setting": "[8]", "value": "less than 10%"}]}]}
